These results are taken from patent US9518018B2, “3-alkoxy, thioalkyl and amino-4-amino-6-(substituted)picolinates and their use as herbicides” (Dow AgroSciences LLC, priority 2011, dated 2016).

In series [1] the test system is CYPES: yellow nutsedge (Cyperus esculentus). Put plainly: Post-Emergent Test I herbicidal activity. The class given is in vivo. Conditions: post-emergence, 336 h, read-out: Visual Growth Reduction (%)-14 Days after Application CYPES; for pest or weed control at 280 g/ha: Table 3, 280 g ai/ha; for pest or weed control at 70 g/ha: Table 3, 70 g ai/ha; for pest or weed control at 140 g/ha: Table 3, 140 g ai/ha. In short, it runs like this: (§1)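 Greenhouse plants at first-second true leaf stage sprayed post-emergence by track sprayer at 187 L/ha with compound in acetone/DMSO/water/isopropanol carrier with crop oil concentrate and Triton X-155, top rate plus ½× to 1/16× serial rates. Injury scored visually at 14 d, 0-100% versus untreated plants; GR20, GR50, GR80 from probit analysis.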

The test system of another series is ZEAMX: corn (Zea mays). The series is described as follows: Post-Emergent Test I herbicidal activity. The class given is in vivo. Conditions: Zea mays, post-emergence, 336 h, read-out: Visual Growth Reduction (%)-14 Days after Application ZEAMX; for pest or weed control at 280 g/ha: Table 3, 280 g ai/ha; for pest or weed control at 70 g/ha: Table 3, 70 g ai/ha; for pest or weed control at 140 g/ha: Table 3, 140 g ai/ha. An outline of the steps: as §1

Series [2] has as its system ABUTH: velvetleaf (Abutilon theophrasti). The series is described as follows: Post-Emergent Test I herbicidal activity. The class given is in vivo. Conditions: Abutilon theophrasti, post-emergence, 336 h, read-out: Visual Growth Reduction (%)-14 Days after Application ABUTH; for pest or weed control at 280 g/ha: Table 3, 280 g ai/ha; for pest or weed control at 70 g/ha: Table 3, 70 g ai/ha; for pest or weed control at 140 g/ha: Table 3, 140 g ai/ha. In short, it runs like this:
as §1

The subject of series [3] is CHEAL: lambsquarters (Chenopodium album). Put plainly: Post-Emergent Test I herbicidal activity. The class given is in vivo. Conditions: Chenopodium album, post-emergence, 336 h, read-out: Visual Growth Reduction (%)-14 Days after Application CHEAL; for pest or weed control at 280 g/ha: Table 3, 280 g ai/ha; for pest or weed control at 70 g/ha: Table 3, 70 g ai/ha; for pest or weed control at 140 g/ha: Table 3, 140 g ai/ha. In short, it runs like this:
as §1

Series [4] has as its system ORYSA: rice (Oryza sativa). Put plainly: Post-Emergent Test I herbicidal activity. The series is classed as in vivo. Conditions: post-emergence, 336 h, read-out: Visual Growth Reduction (%)-14 Days after Application ORYSA; for pest or weed control at 280 g/ha: Table 3, 280 g ai/ha; for pest or weed control at 70 g/ha: Table 3, 70 g ai/ha; for pest or weed control at 140 g/ha: Table 3, 140 g ai/ha. In short, it runs like this: as §1

Series [5] deals with EPHHL: wild poinsettia (Euphorbia heterophylla). Put plainly: Post-Emergent Test I herbicidal activity. The series is classed as in vivo. Conditions: post-emergence, 336 h, read-out: Visual Growth Reduction (%)-14 Days after Application EPHHL; for pest or weed control at 280 g/ha: Table 3, 280 g ai/ha; for pest or weed control at 70 g/ha: Table 3, 70 g ai/ha; for pest or weed control at 140 g/ha: Table 3, 140 g ai/ha. An outline of the steps: as §1

In series [6] the test system is ECHCG: barnyardgrass (Echinochloa crus-galli). Put plainly: Post-Emergent Test I herbicidal activity. Conditions: post-emergence, 336 h, read-out: Visual Growth Reduction (%)-14 Days after Application ECHCG; for pest or weed control at 280 g/ha: Table 3, 280 g ai/ha; for pest or weed control at 70 g/ha: Table 3, 70 g ai/ha; for pest or weed control at 140 g/ha: Table 3, 140 g ai/ha. The class given is in vivo. In short, it runs like this: as §1

As a reminder, the melting point is the temperature, or range, at which the solid turns liquid. On to `COC(=O)c1nc(-c2ccc([Si](C)(C)C)c(F)c2F)c(F)c(N)c1OC`, for which the melting point lay in the range of 123 to 125 °C.

`COC(=O)c1nc(-c2cc(F)c([Si](C)(C)C)cc2F)c(F)c(N)c1OC` came in with a melting point of 137 to 139 °C.

Compound `COC(=O)c1nc(-c2ccc([Si](C)(C)C)cc2F)c(F)c(N)c1OC` showed a melting point of 127 to 129 °C.

On to `COC(=O)c1nc(Cl)c(Cl)c(N)c1OC` [Compound 2, methyl 4-amino-5,6-dichloro-3-methoxypicolinate], for which the melting point fell in the range of 119 to 121 °C. Further, the pest or weed control at 280 g/ha in series [1] was found to be 0%. Moreover, the pest or weed control at 280 g/ha in the series on ZEAMX: corn (Zea mays) worked out at 0%. The pest or weed control at 280 g/ha in series [2] came out at 90%. For the same compound, the pest or weed control at 280 g/ha in series [3] was 90%. Besides, the pest or weed control at 280 g/ha in series [4] turned out to be 0%. Further, the pest or weed control at 280 g/ha in series [5] is 95%. Further, in series [6], the pest or weed control at 280 g/ha was found to be 0%.

Consider `COC(=O)c1nc(-c2ccc(Cl)c(OC)c2F)cc(N)c1OC` [Compound 5, methyl 4-amino-6-(4-chloro-2-fluoro-3-methoxyphenyl)-3-methoxypicolinate], for which the melting point lay in the range of 114 to 118 °C. In addition, the pest or weed control at 70 g/ha in series [1] was determined as 20%. Besides, the pest or weed control at 70 g/ha in the series with ZEAMX: corn (Zea mays) amounted to 60%. In addition, in series [2], the pest or weed control at 70 g/ha amounted to 100%. Besides, the pest or weed control at 70 g/ha in series [3] stood at 100%. Further, the pest or weed control at 70 g/ha in series [4] is 0%. In series [5], the pest or weed control at 70 g/ha turned out to be 100%. Further, the pest or weed control at 70 g/ha in series [6] amounted to 80%.

In turn, `COC(=O)c1nc(-c2ccc(Cl)c(OC)c2F)cc(N)c1OC(F)F` [Compound 9] had a melting point of 162 to 164 °C.

Regarding `CCc1nc(C(=O)OC)c(OC)c(N)c1F` [Compound 13, methyl 4-amino-6-ethyl-5-fluoro-3-methoxypicolinate], the melting point lay in the range of 110.5 to 113 °C. Moreover, the pest or weed control at 280 g/ha in series [1] was 0%. In addition, the pest or weed control at 280 g/ha in the series with ZEAMX: corn (Zea mays) is 0%. Moreover, in series [2], the pest or weed control at 280 g/ha worked out at 0%. Further, the pest or weed control at 280 g/ha in series [3] turned out to be 90%. In addition, in series [4], the pest or weed control at 280 g/ha came to 0%. For the same compound, in series [5], the pest or weed control at 280 g/ha was determined as 70%. The pest or weed control at 280 g/ha in series [6] is 0%.

Compound `COC(=O)c1nc(-c2cc(F)c(Br)cc2F)c(F)c(N)c1OC` [Compound 20] returned a melting point of 116 to 118 °C. Besides, the pest or weed control at 70 g/ha in series [1] amounted to 50%. Moreover, the pest or weed control at 70 g/ha with ZEAMX: corn (Zea mays) was determined as 80%. The pest or weed control at 70 g/ha in series [2] is 85%. In addition, in series [3], the pest or weed control at 70 g/ha amounted to 100%. Besides, the pest or weed control at 70 g/ha in series [4] stood at 0%. Also, the pest or weed control at 70 g/ha in series [5] is 100%. For the same compound, the pest or weed control at 70 g/ha in series [6] came out at 80%.

Compound `COC(=O)c1nc(-c2cc(F)c(I)cc2F)c(F)c(N)c1OC` [Compound 25] had a melting point of 127 to 129 °C. Besides, the pest or weed control at 140 g/ha in series [1] is 100%. Also, in the series with ZEAMX: corn (Zea mays), the pest or weed control at 140 g/ha was 70%. In addition, the pest or weed control at 140 g/ha in series [2] was determined as 70%. Further, the pest or weed control at 140 g/ha in series [3] stood at 90%. Further, in series [4], the pest or weed control at 140 g/ha turned out to be 0%. Further, in series [5], the pest or weed control at 140 g/ha is 100%. Also, the pest or weed control at 140 g/ha in series [6] is 85%.

Turning to `COc1c(C(=O)O)nc(-c2ccc(I)c(F)c2F)c(F)c1N` [Compound 28], the melting point was 145 to 147 °C. For the same compound, the pest or weed control at 70 g/ha in series [1] was 40%. In addition, in the series on ZEAMX: corn (Zea mays), the pest or weed control at 70 g/ha is 70%. In addition, the pest or weed control at 70 g/ha in series [2] worked out at 70%. In addition, in series [3], the pest or weed control at 70 g/ha was 100%. For the same compound, the pest or weed control at 70 g/ha in series [4] came to 5%. The pest or weed control at 70 g/ha in series [5] was determined as 100%. For the same compound, the pest or weed control at 70 g/ha in series [6] worked out at 80%.

Take `COc1c(C(=O)O)nc(-c2ccc(F)cc2)c(F)c1N` [Compound 52]: the melting point was 149 to 151 °C. Moreover, the pest or weed control at 140 g/ha in series [1] was found to be 100%. The pest or weed control at 140 g/ha in the series on ZEAMX: corn (Zea mays) came to 50%. The pest or weed control at 140 g/ha in series [3] is 100%. In series [4], the pest or weed control at 140 g/ha came to 0%. Besides, in series [5], the pest or weed control at 140 g/ha turned out to be 100%. Moreover, in series [6], the pest or weed control at 140 g/ha amounted to 60%.

With `COc1c(N)cc(C(C)(F)F)nc1C(=O)O` [Compound 82, 4-amino-6-(1,1-difluoroethyl)-3-methoxypicolinic acid], the pest or weed control at 140 g/ha in series [1] was determined as 0%; in the series on ZEAMX: corn (Zea mays) it was 0%; in series [2], 20%; in series [3], 85%; in series [4], 0%; in series [5], 80%. In addition, the pest or weed control at 140 g/ha in series [6] turned out to be 0%.

On to `COC(=O)c1nc(C(C)F)cc(N)c1OC` (stereo not drawn) [Compound 83, methyl 4-amino-6-(1-fluoroethyl)-3-methoxypicolinate], for which the pest or weed control at 140 g/ha (in series [1]; with ZEAMX: corn (Zea mays); in series [2]; in series [3]; in series [4]; in series [5]) was 0% each time. Moreover, in series [6], the pest or weed control at 140 g/ha was found to be 0%.

With `COc1c(N)cc(C(C)F)nc1C(=O)O` (stereo not drawn) [Compound 84, 4-amino-6-(1-fluoroethyl)-3-methoxypicolinic acid], the pest or weed control at 140 g/ha in series [1] is 0%; in the series on ZEAMX: corn (Zea mays) it was 0%; in series [2], 10%; in series [3], 30%; in series [4], 0%; in series [5], 0%. For the same compound, the pest or weed control at 140 g/ha in series [6] came to 0%.

Compound `CNc1cc(-c2ccc(Cl)cc2)nc(C(=O)OC)c1N` [Compound 86, Methyl 3-amino-6-(4-chlorophenyl)-4-(methylamino)picolinate] displayed a melting point of 178 to 200 °C. In addition, in series [1], the pest or weed control at 280 g/ha is 0%. For the same compound, the pest or weed control at 280 g/ha in the series with ZEAMX: corn (Zea mays) worked out at 0%. In addition, in series [2], the pest or weed control at 280 g/ha worked out at 40%. Further, the pest or weed control at 280 g/ha in series [3] stood at 95%. In series [4], the pest or weed control at 280 g/ha amounted to 0%. In addition, the pest or weed control at 280 g/ha in series [5] was determined as 50%.

With `CCOC(=O)c1nc(-c2ccc(Cl)cc2F)cc(N)c1SCC(F)(F)F` [Compound 89, Ethyl 4-amino-6-(4-chloro-2-fluorophenyl)-3-((2,2,2-trifluoroethyl)thio)picolinate], the pest or weed control at 140 g/ha in series [1] came to 0%; with ZEAMX: corn (Zea mays), 0%; in series [2], 30%; in series [3], 70%; in series [4] it was 0%; in series [5] it was 90%. The pest or weed control at 140 g/ha in series [6] worked out at 0%.

As for `COC(=O)c1nc(C(F)F)cc(N)c1OC` [Compound 92], the pest or weed control at 140 g/ha in series [1] is 0%; with ZEAMX: corn (Zea mays), 0%; in series [2], 40%; in series [3], 95%; in series [4], 0%; in series [5], 70%. Besides, the pest or weed control at 140 g/ha in series [6] worked out at 0%.

For the compound `C=Cc1nc(C(=O)O)c(OC)c(N)c1F` [Compound 95, 4-amino-5-fluoro-3-methoxy-6-vinylpicolinic acid], the pest or weed control at 140 g/ha was 0% in series [1]; 0% with ZEAMX: corn (Zea mays); 0% in series [2]; 60% in series [3]; 0% in series [4]; 30% in series [5]. In addition, in series [6], the pest or weed control at 140 g/ha was found to be 0%.
